Experimental data taken from patent US10383859B2, “Benzo[d]thiazole derivative or salt thereof, and pharmaceutical composition including same” (Yuhan Corporation, priority 2016, dated 2019).

System: A549 cells
Assay: Cell migration assay (24-well transwell, laminin)
Assay type: cell-based, human
Details: Homo sapiens, A549, 6 h, laminin 10 μg/mL in lower well, test compounds 0.39˜100 μM, migrated cells counted, read-out: Inhibitory activity against cell migration
Procedure: Cell migration was measured with a 24-well transwell having a polycarbonate membrane (8.0 μm pore size, Costar) at the bottom of the upper chamber. Each lower well was treated with laminin (10 μg/mL) and test compounds in predetermined concentrations (0.39˜100 μM) along with a serum-free RPMI1640 medium. A549 cells (Korean Cell Line Bank) were suspended in a serum-free RPMI1640 medium at a concentration of 1×10^6 cells/mL and then the test compounds were added thereto at the indicated concentrations. Each resulting solution (100 μL) was added to the upper chamber. The cells were cultured at 37° C. for 6 hours in a CO2 incubator. The upper chamber was taken out and then the cells were fixed with PBS containing 70% methyl alcohol for 10 minutes, followed by washing with PBS twice. The cells were stained with hematoxylin (Sigma) for 10 minutes and then washed with distilled water. The non-migrated cells were removed from the upper portion of the polycarbonate membrane with a cotton swab. The membranes were excised and separated from the chamber, and then mounted to a slide using a gel mount reagent (Biomeda, USA). The migrated cells (attached to the lower face of the membrane) were counted at three randomly selected sites under a microscope (×20). The cell counting was performed with the Image J program. From the counted cell numbers, each IC50 value was calculated by non-linear regression curve fit using the “GraphPad Prism” program.
The cells are pulled by laminin residing in the lower chamber and then passed through the polycarbonate membrane, so as to attach to the lower face of the membrane.

Structure (SMILES) | IC50 [µM]
O=C(O)c1ccc(CN(CCc2ccccc2F)c2nc3cccc(F)c3s2)cc1 [Example 41, 4-({(7-fluorobenzo[d]thiazol-2-yl)[2-(2-fluorophenyl)ethyl]amino}methyl)benzoic acid] | > 10
COc1ccc(CCN(Cc2ccc(C(=O)O)cc2)c2nc3ccc(Br)cc3s2)cc1 [Example 115, 4-({(6-bromo-benzo[d]thiazol-2-yl)[2-(4-methoxyphenyl)ethyl]amino}methyl)benzoic acid] | > 10
COc1ccc(CCN(Cc2ccc(C(=O)O)cc2)c2nc3cccc(C(=O)O)c3s2)cc1 [Example 118, 2-{(4-carboxybenzyl)[2-(4-methoxyphenyl)ethyl]amino}benzo[d]thiazole-7-carboxylic acid] | > 10
COc1ccc(CCN(c2nc3ccc(Cl)c(F)c3s2)C(C)c2ccc(C(=O)O)cc2)cc1 (stereo not drawn) [Example 102, 4-(1-{(6-chloro-7-fluorobenzo[d]thiazol-2-yl)[2-(4-methoxyphenyl)ethyl]amino}ethyl)benzoic acid] | > 10
COc1cc(C)c(CCN(c2nc3cccc(F)c3s2)C(C)c2ccc(C(=O)O)cc2)cc1C(C)C (stereo not drawn) [Example 62, 4-{1-[(7-fluorobenzo[d]thiazol-2-yl){2-[4-methoxy-2-methyl-5-(propan-2-yl)phenyl]ethyl}amino]ethyl}benzoic acid] | > 10
COc1ccc(CCN(c2nc3ccc(C)c(F)c3s2)C(C)c2ccc(C(=O)O)cc2)cc1 (stereo not drawn) [Example 105, 4-(1-{(7-fluoro-6-methyl-benzo[d]thiazol-2-yl)[2-(4-methoxyphenyl)ethyl]amino}ethyl)benzoic acid] | > 10
COc1ccc(CCN(c2nc3cc(C)ccc3s2)C(C)c2ccc(C(=O)O)cc2)cc1 (stereo not drawn) [Example 112, 4-(1-{[2-(4-methoxyphenyl)ethyl](5-methyl-benzo[d]thiazol-2-yl)amino}ethyl)benzoic acid] | > 10
CCC(c1ccc(C(=O)O)cc1)N(CCc1ccc(OC)cc1Cl)c1nc2cccc(F)c2s1 (stereo not drawn) [Example 70, 4-(1-{[2-(2-chloro-4-methoxyphenyl)ethyl](7-fluorobenzo[d]thiazol-2-yl)amino}propyl)benzoic acid] | > 10
COc1ccc(CCN(c2nc3cccc(C)c3s2)C(C)c2ccc(C(=O)O)cc2)cc1 (stereo not drawn) [Example 110, 4-(1-{[2-(4-methoxyphenyl)ethyl](7-methyl-benzo[d]thiazol-2-yl)amino}ethyl)benzoic acid] | > 10
CCC(c1ccc(C(=O)O)cc1)N(CCc1cc(C(C)C)c(OC)cc1C)c1nc2cccc(F)c2s1 (stereo not drawn) [Example 76, 4-{1-[(7-fluorobenzo[d]thiazol-2-yl){2-[4-methoxy-2-methyl-5-(propan-2-yl)phenyl]ethyl}amino]propyl}benzoic acid] | > 10
O=C(O)c1ccc(CN(CCc2ccc(OCC3CCCCC3)cc2)c2nc3cccc(F)c3s2)cc1 [Example 23, 4-{[[2-(4-cyclohexylmethoxyphenyl)ethyl]-(7-fluorobenzo[d]thiazol-2-yl)amino]methyl}benzoic acid] | > 10
CC(c1ccc(C(=O)O)cc1)N(CCc1ccc(Cl)cc1Cl)c1nc2cccc(F)c2s1 (stereo not drawn) [Example 59, 4-(1-{[2-(2,4-dichlorophenyl)ethyl](7-fluorobenzo[d]thiazol-2-yl)amino}ethyl)benzoic acid] | > 10
CSc1cccc(CCN(Cc2ccc(C(=O)O)cc2)c2nc3cccc(F)c3s2)c1 [Example 13, 4-{[(7-fluorobenzo[d]thiazol-2-yl){2-[3-(methylsulfanyl)phenyl]ethyl}amino]methyl}benzoic acid] | < 1

Now from value to compound:

IC50 [µM] | Structure (SMILES)
< 1 | COc1cc(F)c(CCN(Cc2ccc(C(=O)O)cc2)c2nc3cccc(F)c3s2)c(F)c1 [Example 51, 4-({[2-(2,6-difluoro-4-methoxyphenyl)ethyl](7-fluorobenzo[d]thiazol-2-yl)amino}methyl)benzoic acid]
< 1 | COc1ccc(CCN(Cc2ccc(C(=O)O)cc2)c2nc3cccc(Cl)c3s2)cc1 [Example 83, 4-({(7-chloro-benzo[d]thiazol-2-yl)[2-(4-methoxyphenyl)ethyl]amino}methyl)benzoic acid]
< 1 | CNc1ccc(CCN(Cc2ccc(C(=O)O)cc2)c2nc3cccc(F)c3s2)cc1 [Example 20, 4-{[(7-fluorobenzo[d]thiazol-2-yl){2-[4-(methylamino)phenyl]ethyl}amino]methyl}benzoic acid]
< 1 | COc1ccc(CCN(Cc2ccc(C(=O)O)cc2)c2nc3cccc(F)c3s2)c(C)c1 [Example 50, 4-({(7-fluorobenzo[d]thiazol-2-yl)[2-(4-methoxy-2-methylphenyl)ethyl]amino}methyl)benzoic acid]
< 1 | Cc1ccc(CCN(Cc2ccc(C(=O)O)cc2)c2nc3cccc(F)c3s2)cc1 [Example 6, 4-(((7-fluorobenzo[d]thiazol-2-yl)(4-methylphenylethyl)amino)methyl)benzoic acid]
< 1 | COc1ccc(CCN(Cc2ccc(C(=O)O)cc2Cl)c2nc3cccc(F)c3s2)cc1 [Example 78, 3-chloro-4-({(7-fluorobenzo[d]thiazol-2-yl)[2-(4-methoxyphenyl)ethyl]amino}methyl)benzoic acid]
< 1 | COc1ccc(CCN(Cc2ccc(C(=O)O)c(O)c2)c2nc3cccc(F)c3s2)cc1 [Example 77, 4-({(7-fluorobenzo[d]thiazol-2-yl)[2-(4-methoxyphenyl)ethyl]amino}methyl)-2-hydroxybenzoic acid]
< 1 | COc1ccc(CCN(c2nc3cccc(F)c3s2)C(C)c2ccc(C(=O)O)cc2)c(C)c1 (stereo not drawn) [Example 66, 4-(1-{(7-fluorobenzo[d]thiazol-2-yl)[2-(4-methoxy-2-methylphenyl)ethyl]amino}ethyl)benzoic acid]
< 1 | CCc1ccc(CCN(Cc2ccc(C(=O)O)cc2)c2nc3cccc(F)c3s2)cc1 [Example 32, 4-({[2-(4-ethylphenyl)ethyl](7-fluorobenzo[d]thiazol-2-yl)amino}methyl)benzoic acid]
< 1 | COc1ccc(CCN(Cc2ccc(C(=O)O)cc2)c2nc3cccc(F)c3s2)cc1C [Example 49, 4-({(7-fluorobenzo[d]thiazol-2-yl)[2-(4-methoxy-3-methylphenyl)ethyl]amino}methyl)benzoic acid]
< 1 | CSc1ccc(CCN(Cc2ccc(C(=O)O)cc2)c2nc3cccc(F)c3s2)cc1 [Example 12, 4-{[(7-fluorobenzo[d]thiazol-2-yl){2-[4-(methylsulfanyl)phenyl]ethyl}amino]methyl}benzoic acid]
< 1 | COc1ccc(CCN(Cc2ccc(C(=O)O)cc2)c2nc3ccc(Cl)c(F)c3s2)cc1 [Example 88, 4-({(6-chloro-7-fluorobenzo[d]thiazol-2-yl)[2-(4-methoxyphenyl)ethyl]amino}methyl)benzoic acid]
< 1 | O=C(O)c1ccc(CN(CCc2ccc(OCC3CC3)cc2)c2nc3cccc(F)c3s2)cc1 [Example 19, 4-{[[2-(4-cyclopropylmethoxyphenyl)ethyl](7-fluorobenzo[d]thiazol-2-yl)amino]methyl}benzoic acid]

Same assay, conditions: laminin 10 μg/mL in lower well, test compounds 0.39˜100 μM, 6 hours, migrated cells counted, read-out: Inhibitory activity against cell migration

IC50 [µM] | Structure (SMILES)
> 10 | COc1cccc(CCN(Cc2ccc(C(=O)O)cc2)c2nc3cccc(F)c3s2)c1 [Example 42, 4-({(7-fluorobenzo[d]thiazol-2-yl)[2-(3-methoxyphenyl)ethyl]amino}methyl)benzoic acid]
